Laboratory results taken from PubChem BioAssay AID328 (DTP/NCI, 2004).
Values joined by “and” are separate entries in the source; they are usually repeats but may differ in a detail not shown here. Equal entries are not always repeated. Inconclusive results and toxic doses are left out.

Test system: BDF1 mice, P388 leukemia ip, median survival T/C
Experiment: NCI In Vivo Anticancer Drug Screen. Data for tumor model P388 Leukemia (intraperitoneal) in B6D2F1 (BDF1) mice
Settings: endpoint: median survival time, higher = longer survival
In short: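 In tumour-bearing mice, survival after compound treatment is set against the vehicle group and given as a quotient.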

[1] = dose: 50.0 mg/kg/injection, schedule: Q01DX009 (ip), vehicle: Klucel (hydroxypropylcellulose) (HPC)
[2] = dose: 100.0 mg/kg/injection, schedule: Q01DX009 (ip), vehicle: Klucel (hydroxypropylcellulose) (HPC)
[3] = dose: 200.0 mg/kg/injection, schedule: Q01DX009 (ip), vehicle: Klucel (hydroxypropylcellulose) (HPC)
[4] = dose: 50.0 mg/kg/injection, schedule: Q04DX002 (ip), vehicle: saline with Tween-80
[5] = dose: 50.0 mg/kg/injection, schedule: Q01DX009 (ip), vehicle: saline with Tween-80
[6] = dose: 100.0 mg/kg/injection, schedule: Q01DX009 (ip), vehicle: saline with Tween-80
[7] = dose: 200.0 mg/kg/injection, schedule: Q01DX009 (ip), vehicle: saline with Tween-80
[8] = dose: 6.25 mg/kg/injection, schedule: Q01DX009 (ip), vehicle: Klucel (hydroxypropylcellulose) (HPC)
[9] = dose: 12.5 mg/kg/injection, schedule: Q01DX009 (ip), vehicle: Klucel (hydroxypropylcellulose) (HPC)

## Cc1onc(-c2ccccc2Cl)c1C(=O)Nc1ccccc1CC1c2ccccc2CCN1C (stereo unspecified)
[1]
  T/C: 101 % of control
[2]
  T/C: 104 % of control
[3]
  T/C: 95 % of control

## CC(=O)N(O)c1ccc(Cl)cc1
dose: 25.0 mg/kg/injection, schedule: Q04DX002 (ip), vehicle: saline with Tween-80
  T/C: 91 % of control and 100 % of control
[4]
  T/C: 104 % of control and 110 % of control

## COc1cc(C)c(C2NC(=O)c3ccccc3N2)cc1C (stereo unspecified)
[3]
  T/C: 155 % of control and 170 % of control
dose: 265.0 mg/kg/injection, schedule: Q01DX009 (ip), vehicle: Klucel (hydroxypropylcellulose) (HPC)
  T/C: 150 % of control

## Cc1csc2nc(-c3ccccc3)nc(Cl)c12
dose: 75.0 mg/kg/injection, schedule: Q04DX003 (ip), vehicle: saline sonified
  T/C: 105 % of control
dose: 150.0 mg/kg/injection, schedule: Q04DX003 (ip), vehicle: saline sonified
  T/C: 120 % of control
dose: 300.0 mg/kg/injection, schedule: Q04DX003 (ip), vehicle: saline sonified
  T/C: 110 % of control

## O=c1[nH]c2cc(Cl)c(Cl)cc2o1
[1]
  T/C: 115 % of control
[5]
  T/C: 104 % of control
[2]
  T/C: 115 % of control
[6]
  T/C: 100 % of control
dose: 100.0 mg/kg/injection, schedule: Q04DX003 (ip), vehicle: saline with Tween-80
  T/C: 100 % of control
[3]
  T/C: 110 % of control
[7]
  T/C: 104 % of control
dose: 200.0 mg/kg/injection, schedule: Q04DX003 (ip), vehicle: saline with Tween-80
  T/C: 95 % of control

## NC(CCC(=O)NNc1ccccc1)C(=O)O (stereo unspecified)
dose: 15.0 mg/kg/injection, schedule: Q01DX009 (ip), vehicle: saline with Tween-80
  T/C: 96 % of control
dose: 30.0 mg/kg/injection, schedule: Q01DX009 (ip), vehicle: saline with Tween-80
  T/C: 91 % of control

## CC(=O)OCC(=O)[C@@]1(O)CC[C@H]2[C@@H]3C[C@H](C)C4=CC(=O)CC[C@]4(C)[C@H]3[C@@H](O)C[C@@]21C
dose: 400.0 mg/kg/injection, schedule: Q01DX009 (ip), vehicle: saline with Tween-80
  T/C: 90 % of control

## C#CC(N)=O
dose: 12.5 mg/kg/injection, schedule: Q04DX003 (ip), vehicle: Klucel (hydroxypropylcellulose) (HPC)
  T/C: 100 % of control
dose: 25.0 mg/kg/injection, schedule: Q04DX003 (ip), vehicle: Klucel (hydroxypropylcellulose) (HPC)
  T/C: 90 % of control

## NC(N)=Nc1ccc(F)cc1
[5]
  T/C: 110 % of control
[6]
  T/C: 95 % of control
[7]
  T/C: 90 % of control

## CC(=O)n1nc(Cl)c2ccc([N+](=O)[O-])cc21
[5]
  T/C: 97 % of control
[6]
  T/C: 100 % of control
[7]
  T/C: 100 % of control

## CC(C)(C)NC(C1=CC(C)(C)c2ccccc2C1=O)c1ccccc1 (stereo unspecified)
[2]
  T/C: 105 % of control
dose: 100.0 mg/kg/injection, schedule: Q04DX003 (ip), vehicle: Klucel (hydroxypropylcellulose) (HPC)
  T/C: 100 % of control
[3]
  T/C: 110 % of control
dose: 200.0 mg/kg/injection, schedule: Q04DX003 (ip), vehicle: Klucel (hydroxypropylcellulose) (HPC)
  T/C: 95 % of control
dose: 400.0 mg/kg/injection, schedule: Q04DX003 (ip), vehicle: Klucel (hydroxypropylcellulose) (HPC)
  T/C: 90 % of control

## CC(=O)Nc1ccc(OC(C)=O)cc1C=O
[4]
  T/C: 111 % of control
dose: 100.0 mg/kg/injection, schedule: Q04DX002 (ip), vehicle: saline with Tween-80
  T/C: 98 % of control
dose: 200.0 mg/kg/injection, schedule: Q04DX002 (ip), vehicle: saline with Tween-80
  T/C: 89 % of control

## COc1cc(C=Nc2cccc(Cl)c2)ccc1N(CCCl)CCCl
dose: 8.0 mg/kg/injection, schedule: Q04DX003 (ip), vehicle: saline with Tween-80
  T/C: 195 % of control
dose: 12.5 mg/kg/injection, schedule: Q01DX009 (ip), vehicle: saline with Tween-80
  T/C: 187 % of control
dose: 16.0 mg/kg/injection, schedule: Q04DX003 (ip), vehicle: saline with Tween-80
  T/C: 187 % of control
dose: 25.0 mg/kg/injection, schedule: Q01DX009 (ip), vehicle: saline with Tween-80
  T/C: 187 % of control
dose: 33.0 mg/kg/injection, schedule: Q04DX003 (ip), vehicle: saline with Tween-80
  T/C: 207 % of control
[5]
  T/C: 95 % of control
dose: 50.0 mg/kg/injection, schedule: Q04DX003 (ip), vehicle: saline with Tween-80
  T/C: 230 % of control

## CCCCCCCCCCCCNCCCCCCCCCCCC
dose: 1.0 mg/kg/injection, schedule: Q01DX010 (ip), vehicle: other
  T/C: 100 % of control
dose: 2.0 mg/kg/injection, schedule: Q01DX010 (ip), vehicle: other
  T/C: 100 % of control
dose: 3.0 mg/kg/injection, schedule: Q01DX010 (ip), vehicle: other
  T/C: 90 % of control
dose: 3.12 mg/kg/injection, schedule: Q01DX009 (ip), vehicle: Klucel (hydroxypropylcellulose) (HPC)
  T/C: 100 % of control
dose: 3.25 mg/kg/injection, schedule: Q01DX001 (ip), vehicle: Klucel (hydroxypropylcellulose) (HPC)
  T/C: 100 % of control
dose: 4.0 mg/kg/injection, schedule: Q01DX010 (ip), vehicle: other
  T/C: 100 % of control
[8]
  T/C: 90 % of control
dose: 6.5 mg/kg/injection, schedule: Q01DX001 (ip), vehicle: Klucel (hydroxypropylcellulose) (HPC)
  T/C: 100 % of control
dose: 8.0 mg/kg/injection, schedule: Q01DX010 (ip), vehicle: water
  T/C: 100 % of control
[9]
  T/C: 95 % of control
dose: 13.0 mg/kg/injection, schedule: Q01DX001 (ip), vehicle: Klucel (hydroxypropylcellulose) (HPC)
  T/C: 100 % of control
dose: 18.0 mg/kg/injection, schedule: Q01DX009 (ip), vehicle: Klucel (hydroxypropylcellulose) (HPC)
  T/C: 95 % of control
dose: 60.0 mg/kg/injection, schedule: Q01DX001 (ip), vehicle: Klucel (hydroxypropylcellulose) (HPC)
  T/C: 100 % of control
dose: 90.0 mg/kg/injection, schedule: Q01DX001 (ip), vehicle: Klucel (hydroxypropylcellulose) (HPC)
  T/C: 100 % of control
dose: 130.0 mg/kg/injection, schedule: Q01DX001 (ip), vehicle: Klucel (hydroxypropylcellulose) (HPC)
  T/C: 105 % of control
dose: 135.0 mg/kg/injection, schedule: Q01DX001 (ip), vehicle: Klucel (hydroxypropylcellulose) (HPC)
  T/C: 104 % of control
dose: 200.0 mg/kg/injection, schedule: Q01DX001 (ip), vehicle: Klucel (hydroxypropylcellulose) (HPC)
  T/C: 115 % of control
dose: 300.0 mg/kg/injection, schedule: Q01DX001 (ip), vehicle: Klucel (hydroxypropylcellulose) (HPC)
  T/C: 110 % of control
dose: 305.0 mg/kg/injection, schedule: Q01DX001 (ip), vehicle: Klucel (hydroxypropylcellulose) (HPC)
  T/C: 109 % of control

## O=c1c2ccccc2[nH]c2cc3c(=O)c4ccccc4[nH]c3cc12
[5]
  T/C: 99 % of control
[6]
  T/C: 95 % of control
[7]
  T/C: 93 % of control

## C=CC(C)(C)c1cc2cc3c(cc2oc1=O)OC(C(C)(C)OC(C)=O)C3 (stereo unspecified)
dose: 100.0 mg/kg/injection, schedule: Q04DX003 (ip), vehicle: saline
  T/C: 107 % of control
dose: 200.0 mg/kg/injection, schedule: Q04DX003 (ip), vehicle: saline
  T/C: 104 % of control

## CC(=O)Oc1ccc2c(c1)C(=O)C(Br)C1C2CCC2(C)C(OC(C)=O)CCC12 (stereo unspecified)
dose: 50.0 mg/kg/injection, schedule: Q01DX010 (sc), vehicle: steriod suspending solution
  T/C: 95 % of control
dose: 400.0 mg/kg/injection, schedule: Q01DX010 (sc), vehicle: steriod suspending solution
  T/C: 90 % of control

## Nc1c(Cl)c(Cl)nc(C(=O)O)c1Cl
dose: 2.5 mg/kg/injection, schedule: Q01DX009 (ip), vehicle: saline
  T/C: 102 % of control
dose: 5.0 mg/kg/injection, schedule: Q01DX009 (ip), vehicle: saline
  T/C: 106 % of control
[8]
  T/C: 104 % of control
dose: 10.0 mg/kg/injection, schedule: Q01DX009 (ip), vehicle: saline
  T/C: 113 % of control
[9]
  T/C: 95 % of control
dose: 20.0 mg/kg/injection, schedule: Q01DX009 (ip), vehicle: saline
  T/C: 115 % of control
dose: 25.0 mg/kg/injection, schedule: Q01DX009 (ip), vehicle: Klucel (hydroxypropylcellulose) (HPC)
  T/C: 104 % of control
dose: 40.0 mg/kg/injection, schedule: Q01DX009 (ip), vehicle: saline
  T/C: 106 % of control
[1]
  T/C: 106 % of control
[2]
  T/C: 98 % of control

## CCC1CCCCN1C(=S)N/N=C(\C)c1ccccn1 (stereo unspecified)
dose: 3.12 mg/kg/injection, schedule: Q04DX003 (ip), vehicle: saline with Tween-80
  T/C: 102 % of control
dose: 12.5 mg/kg/injection, schedule: Q04DX003 (ip), vehicle: saline with Tween-80
  T/C: 114 % of control

## CC1(C)N=C(N)N=C(N)N1c1ccc(CCCCc2ccc(S(=O)(=O)F)cc2)cc1
dose: 12.0 mg/kg/injection, schedule: Q01DX009 (ip), vehicle: saline
  T/C: 150 % of control

## CC(=O)OC/C=C(C)/C=C/C=C(C)/C=C/C1=C(C)CCCC1(C)C
dose: 100.0 mg/kg/injection, schedule: Q01DX010 (ip), vehicle: acetone
  T/C: 107 % of control
dose: 200.0 mg/kg/injection, schedule: Q01DX010 (ip), vehicle: acetone
  T/C: 89 % of control
dose: 800.0 mg/kg/injection, schedule: Q01DX010 (ip), vehicle: acetone
  T/C: 121 % of control
